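Where inhibition never reached the appropriate level, the endpoint shown equals the highest concentration tested. Otherwise, values were interpolated linearly from a five-concentration, 48-hour dose response in 96-well plates. TGI: total growth inhibition.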

Results on one compound are retold here after PubChem BioAssay (NCI).

The assay concerns P388 leukemia. In words: NCI tumour cell line growth inhibition, 48 h.

`Nc1ncnc2c(C3OC(CO)C(O)C3O)[nH]nc12` (stereo unspecified): the TGI was found to be 51.7 µM.
